The numbers were not newly measured in patent publication US20120238596A1, “FORMULATIONS COMPRISING PALONOSETRON” (DR. REDDY'S LABORATORIES, INC., priority 2008, published 2012), which cites them from elsewhere.

This data set concerns the target T1, serotonin subtype 3 (5-HT3) receptor (Homo sapiens, UniProt P46098).
T1 sequence (P46098 24-478): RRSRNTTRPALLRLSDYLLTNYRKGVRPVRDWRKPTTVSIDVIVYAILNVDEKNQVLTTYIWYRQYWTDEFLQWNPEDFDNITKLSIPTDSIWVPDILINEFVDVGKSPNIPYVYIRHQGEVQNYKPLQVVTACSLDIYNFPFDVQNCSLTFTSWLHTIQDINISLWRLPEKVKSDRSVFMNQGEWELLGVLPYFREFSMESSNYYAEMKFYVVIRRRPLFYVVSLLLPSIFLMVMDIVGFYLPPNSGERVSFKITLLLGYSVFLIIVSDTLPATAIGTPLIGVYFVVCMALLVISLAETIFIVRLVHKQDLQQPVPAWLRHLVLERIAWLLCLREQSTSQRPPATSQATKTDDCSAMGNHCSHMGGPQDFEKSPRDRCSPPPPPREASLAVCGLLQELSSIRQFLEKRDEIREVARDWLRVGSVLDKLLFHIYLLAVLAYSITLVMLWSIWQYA

Turning to `Cl.O=C1c2cccc3c2[C@H](CCC3)CN1[C@@H]1CN2CCC1CC2` [Palonosetron hydrochloride, (3a5)-2-[(S)-1-Azabicyclo [2.2.2]oct-3-yl]-2,3,3a,4,5,6-hexahydro-1-oxo-1H-benz [de]isoquinoline hydrochloride], the “binding affinity for 5-HT3 receptor” value is recorded as “strong binding affinity”.
